In patent publication US12643867B2, “Compositions and uses thereof” (University of Virginia Patent Foundation, priority 2017, dated 2026):

Biological target: T1, DGKK (Diacylglycerol kinase kappa) (Homo sapiens, UniProt Q5KSL6)
T1 construct: host or cells: SILAC HEK293T
T1 sequence (Q5KSL6 1-1271): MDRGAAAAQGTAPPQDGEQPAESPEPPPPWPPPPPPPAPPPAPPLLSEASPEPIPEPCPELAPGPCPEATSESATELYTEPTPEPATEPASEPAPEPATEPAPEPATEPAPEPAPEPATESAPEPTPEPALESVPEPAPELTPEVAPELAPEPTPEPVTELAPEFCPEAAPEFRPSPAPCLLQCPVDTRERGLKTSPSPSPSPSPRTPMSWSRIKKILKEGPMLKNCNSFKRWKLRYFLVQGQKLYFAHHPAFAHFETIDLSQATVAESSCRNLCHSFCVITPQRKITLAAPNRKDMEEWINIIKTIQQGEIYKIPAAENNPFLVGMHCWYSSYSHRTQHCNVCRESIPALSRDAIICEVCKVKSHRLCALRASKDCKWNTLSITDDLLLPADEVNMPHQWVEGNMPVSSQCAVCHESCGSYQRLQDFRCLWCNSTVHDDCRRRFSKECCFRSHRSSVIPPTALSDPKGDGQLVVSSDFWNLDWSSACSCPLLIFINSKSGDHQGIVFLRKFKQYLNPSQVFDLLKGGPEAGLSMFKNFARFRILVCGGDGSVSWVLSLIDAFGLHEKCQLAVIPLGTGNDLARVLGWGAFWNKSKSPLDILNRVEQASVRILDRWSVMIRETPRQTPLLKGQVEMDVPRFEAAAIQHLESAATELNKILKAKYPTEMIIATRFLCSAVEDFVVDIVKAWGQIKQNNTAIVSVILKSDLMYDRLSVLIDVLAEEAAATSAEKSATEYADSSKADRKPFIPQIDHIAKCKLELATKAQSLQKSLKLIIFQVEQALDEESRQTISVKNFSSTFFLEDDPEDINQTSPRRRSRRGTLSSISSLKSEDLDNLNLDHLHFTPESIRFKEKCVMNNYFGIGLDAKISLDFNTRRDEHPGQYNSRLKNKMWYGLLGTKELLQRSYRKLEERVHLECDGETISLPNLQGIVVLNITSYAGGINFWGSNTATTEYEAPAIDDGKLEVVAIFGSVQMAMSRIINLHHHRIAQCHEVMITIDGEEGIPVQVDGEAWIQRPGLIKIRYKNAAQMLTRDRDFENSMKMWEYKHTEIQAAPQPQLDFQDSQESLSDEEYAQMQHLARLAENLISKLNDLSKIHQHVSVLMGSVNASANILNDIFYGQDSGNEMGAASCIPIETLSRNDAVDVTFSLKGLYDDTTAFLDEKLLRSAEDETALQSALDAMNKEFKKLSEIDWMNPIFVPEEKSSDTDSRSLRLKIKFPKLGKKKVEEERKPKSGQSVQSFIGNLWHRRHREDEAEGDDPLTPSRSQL
Assay: SILAC LC-MS ATP acyl phosphate probe competition, recombinant DGK-HEK293T lysates
Assay type: binding
Settings: site DAGKa (K892); ATP 1 mM; Ketanserin, Ritanserin 100 μM; RF001 1 mM
Description: Recombinant DGK proteins were produced by transient transfection of HEK293T cells with recombinant DNA. pDONR223-DGKK was a gift from William Hahn & David Root (Addgene plasmid #23487). pCSF107mT-GATEWAY-3′-FLAG was a gift from Todd Stukenberg (Addgene plasmid #67619). pCSF107mT-DGKK-FLAG construct was generated by recombination of the Addgene plasmids using the Gateway cloning system (Invitrogen). All other vectors were gifted to Dr. Kevin Lynch (University of Virginia, School of Medicine) by Dr. Kaoru Goto (Yamagata University, School of Medicine) and Dr. Fumio Sakane (Chiba University) and were kindly shared with us: pcDNA3-FLAG-DGKA (rat), pCMV-Tag2B-FLAG-DGKQ (human), pcDNA3-DGKE-3×Flag (human), and pCMV-SPORT6-HA-DGKZ (human). HEK293T cells were plated at a concentration of 400,000 cells in complete DMEM and grown to 50-60% confluency. A polyethyleneimine (PEI) stock solution was prepared (1 mg/mL, pH 7.4) and filter sterilized. Serum-free DMEM (600 μL) was mixed gently with 2.6 μg DNA and 20 μL of sterile PEI (1 mg/mL, pH 7.4) in a sterile microfuge tube. Mixtures were incubated for 30 min at 25° C. The mixture was then added drop-wise to each 10 cm^2 plate, rocked back and forth to mix, and placed back in the incubator. Cell pellets were harvested after two full days of growth, snap-frozen in liquid N2, and stored at −80° C. until use. Recombinant proteins were produced by transient transfection in SILAC HEK293T cells using the procedure described above, except that cells were plated at a concentration of 1×10^6 cells per 10 cm^2 plate and grown to ˜70% confluency prior to introducing transfection mixture.
Proteomes were diluted to 2 mg/ml in kinase buffer. The light and heavy proteomes (0.5 mg, 250 μL total reaction volume) were pre-treated with vehicle or compound, respectively (5 μL, DMSO (light) or 50× stock in DMSO (heavy)), mixed gently, and incubated at 25° C. for 30 min. […] After incubation, matched light and heavy proteomes were transferred and mixed in a 1:1 ratio in a two-dram vial containing 4:1:3 MeOH/CHCl3/H2O (2 mL MeOH, 500 AL CHCl3, 1.5 mL H2O) for extraction of proteins to remove excess probe, quickly vortexed, and centrifuged at 1,400×g for 3 min to pellet protein. Organic and aqueous layers were removed using a Pasteur pipette, and the protein pellet was transferred to a screw-top tube in 600 μL MeOH. A second extraction was performed by adding CHCl3 (150 μL) and H2O (600 μL) to each sample, vortexed, and centrifuged at 1,400×g for 3 min to pellet protein. Organic and aqueous layers were removed by pipetting. MeOH added to pellet (600 μL) and pellets were re-suspended by sonication (3×1 sec pulse, 20% amplitude) for a final extraction. Samples were then centrifuged at 17,000×g for 5 min to pellet protein and MeOH was removed by pipetting. The pellets were re-suspended in 10 M urea/25 mM ammonium bicarbonate ([…]), brought to a final volume of 1 mL with 25 mM ammonium bicarbonate, reduced with 10 mM DTT for 15 min at 65° C. allowed to cool, and then alkylated with 40 mM iodoacetamide for 30 min at 25° C. in the dark. To desalt the samples, each was transferred to a two-dram glass vial, and to the vial 4:1:2 MeOH/CHCl3/H2O (2 mL MeOH, 500 AL CHCl3, 1 mL H2O) was added. The vials were vortexed quickly, spun at 1.400×g for 3 min to pellet protein, and aqueous and organic layers were removed using a Pasteur pipette. The resulting protein pellet was transferred to a screw-top tube in 600 μL MeOH, and then CHCl3 (150 μL) and HO (600 μL) were added to extract protein a second time. The samples were vortexed quickly, centrifuged at 1,400×g to pellet protein, and the aqueous and organic layers were removed by pipetting. Resulting protein pellet was suspended in MeOH (600 μL) via sonication (3×1 sec pulse, 20% amplitude), centrifuged at 17,000×g for 5 min to pellet protein, and MeOH removed by pipetting. […]

Row | SMILES | SILAC ratio, DGKK DAGKa probe-modified peptide
1 | O=C(c1ccc(F)cc1)C1CCN(CCn2c(=O)[nH]c3ccccc3c2=O)CC1 [Ketanserin] | 0.2
2 | Fc1ccc(C(=C2CCNCC2)c2ccc(F)cc2)cc1 [RF001, 4-(Bis(4-fluorophenyl)methylene) piperidine] | 1.6
3 | Cc1nc2sccn2c(=O)c1CCN1CCC(=C(c2ccc(F)cc2)c2ccc(F)cc2)CC1 [Ritanserin] | 0.7
